# From PMC9414676, “Experimental Studies Indicate That ST-2223, the Antagonist of Histamine H3 and Dopamine D2/D3 Receptors, Restores Social Deficits and Neurotransmission Dysregulation in Mouse Model of Autism” (Pharmaceuticals, 2022)
# Legend:
# [1] = molecular target: T1, hH3R (Homo sapiens, UniProt Q9Y5N1); experiment: [3H]Nα-methylhistamine binding assay, membranes of HEK cells stably expressing hH3R
# T1 construct: expressed in transfected cells
# Protocol: In vitro, ST-2223 was evaluated for its H3R affinity on membrane preparations of HEK-293 cells, which stably express the hH3R, by [^3H]N^α-methylhistamine displacement assays.
# [2] = molecular target: T2, hD3R (Homo sapiens, UniProt P35462); experiment: [3H]spiperone displacement assay, CHO cells expressing hD3Rs; format: binding; settings: ratio of Ki values
# T2 construct: expressed in transfected cells; host or cells: CHO cells (from the earlier reading's assay name)
# T2 sequence (P35462 whole entry): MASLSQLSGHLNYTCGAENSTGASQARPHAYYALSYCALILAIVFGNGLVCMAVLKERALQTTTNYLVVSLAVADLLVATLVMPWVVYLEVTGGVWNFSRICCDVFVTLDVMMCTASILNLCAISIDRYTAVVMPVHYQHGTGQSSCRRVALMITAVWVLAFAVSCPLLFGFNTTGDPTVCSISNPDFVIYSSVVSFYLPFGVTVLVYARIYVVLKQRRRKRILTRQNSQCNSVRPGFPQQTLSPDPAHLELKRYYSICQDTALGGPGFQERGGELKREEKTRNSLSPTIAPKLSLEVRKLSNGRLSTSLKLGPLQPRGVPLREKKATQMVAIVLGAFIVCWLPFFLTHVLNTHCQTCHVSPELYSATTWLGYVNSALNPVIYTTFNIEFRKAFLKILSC
# T1 sequence (Q9Y5N1 whole entry): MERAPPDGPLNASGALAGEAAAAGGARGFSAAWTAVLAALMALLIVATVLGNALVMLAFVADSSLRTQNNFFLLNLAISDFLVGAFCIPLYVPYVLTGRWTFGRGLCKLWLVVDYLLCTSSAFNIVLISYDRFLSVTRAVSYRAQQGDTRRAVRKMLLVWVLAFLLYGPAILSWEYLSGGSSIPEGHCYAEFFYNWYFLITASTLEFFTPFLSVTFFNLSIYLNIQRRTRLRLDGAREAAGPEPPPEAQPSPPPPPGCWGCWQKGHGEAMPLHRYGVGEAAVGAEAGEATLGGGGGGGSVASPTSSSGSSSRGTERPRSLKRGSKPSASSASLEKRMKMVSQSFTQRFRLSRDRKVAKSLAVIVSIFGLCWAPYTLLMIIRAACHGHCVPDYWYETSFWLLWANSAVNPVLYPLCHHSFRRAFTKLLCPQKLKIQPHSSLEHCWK
compound,measurement,setting,value
"COc1ccccc1N1CCN(CCCCNC(=O)c2ccc3cc(OCCCN4CCCCC4)ccc3c2)CC1 [ST-2223, N-(4-(4-(2-methoxyphenyl)piperazin-1-yl)butyl)-6-(3-(piperidin-1-yl)propoxy)-2-naphthamide]",Ki,[1],4.6 nM
same,ratio of hD2Rs/hD3Rs,[2],10
